The term EC50 denotes the midpoint of the concentration-response curve.

Where only a bound is given, the exact number is not on record here.

For this assay, the target named is Glycogen synthase kinase-3 beta (Homo sapiens, UniProt P49841). In words: GSK3beta kinase inhibitor potency, dose response, biochemical, luminescence, cell-free homogeneous, retest (AID 434954).
Chain of Glycogen synthase kinase-3 beta (P49841 whole entry): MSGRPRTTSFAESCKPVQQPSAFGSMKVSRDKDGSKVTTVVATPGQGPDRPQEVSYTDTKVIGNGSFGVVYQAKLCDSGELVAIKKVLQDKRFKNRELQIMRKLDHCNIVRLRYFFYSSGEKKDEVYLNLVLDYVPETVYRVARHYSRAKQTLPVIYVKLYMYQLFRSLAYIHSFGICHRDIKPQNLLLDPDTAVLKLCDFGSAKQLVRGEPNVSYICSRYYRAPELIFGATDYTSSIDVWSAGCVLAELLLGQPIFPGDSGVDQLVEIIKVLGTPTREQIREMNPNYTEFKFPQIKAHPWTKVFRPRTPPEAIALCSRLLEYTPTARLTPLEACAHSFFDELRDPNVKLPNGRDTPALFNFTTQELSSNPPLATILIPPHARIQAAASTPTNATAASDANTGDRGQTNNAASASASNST
`CN(Cc1c(C(=O)NN=Cc2ccc(O)cc2)nnn1-c1nonc1N)C1CCCCC1` [MLS001142838] displayed a 50% effective concentration (EC50) of 0.186 µM.

The compound `Cc1cccc(NC(=O)C(C)n2cc([N+](=O)[O-])cn2)n1` (centres undefined) [N-(6-methylpyridin-2-yl)-2-(4-nitro-1H-pyrazol-1-yl)propanamide] returned an EC50 of over 300 µM. For the compound `O=NCc1cn(-c2ccccc2)nc1-c1ccccc1` [1,3-diphenyl-4-pyrazolecarboxaldehyde oxime], the EC50 is 26 µM. As to `COC1=CC(=O)CC(C)C12Oc1cc(OC)cc(OC)c1C2=O` (centres undefined) [3',4,6-trimethoxy-5'-methyl-spiro[1-benzofuran-2,4'-cyclohex-2-ene]-1',3-dione], the EC50 was over 300 µM.

`Cc1nn(CC(=O)N2CCN(c3ccccn3)CC2)c(=O)c2cc3sccc3n12` [1-methyl-3-[2-oxidanylidene-2-(4-pyridin-2-ylpiperazin-1-yl)ethyl]thieno[3,4]pyrrolo[3,5-c][1,2,4]triazin-4-one] displayed an EC50 of over 300 µM. On to `COc1ccc(-c2nn(-c3ccccc3)cc2CN=Nc2ccccn2)cc1` [MLS000336205], for which the EC50 is over 300 µM.

As to `O=C1CN=C(c2cccs2)c2c(sc3c2CCCC3)N1` [5-Thiophen-2-yl-1,2,3,4,7,9-hexahydro-10-thia-6,9-diaza-benzo[a]azulen-8-one], a half-maximal response (EC50) required 3.09 µM. Compound `COc1ccccc1N1CCN(C(=O)Cn2nnc(-c3ccncc3)n2)CC1` [SMR000003468] returned an EC50 of over 300 µM. The figure for `COc1cc(/C=N/NC(=O)c2ccc3ccccc3c2)ccc1Oc1ccc([N+](=O)[O-])cn1` [N-[[3-methoxy-4-(5-nitropyridin-2-yl)oxy-phenyl]methylideneamino]naphthalene-2-carboxamide] is over 300 µM. `Cc1ccc(C(=O)c2coc3ccc(O)cc23)cc1` [SMR000539213]: the response was half-maximal at 11.2 µM (EC50).

Regarding `COc1ccc(-c2nn(-c3ccccc3)cc2C(=O)O)cc1` [SMR000015534], the EC50 is over 300 µM. In turn, `CCOC(=O)c1nnn(-c2nonc2N)c1COc1ccccc1` [ethyl 1-(4-amino-1,2,5-oxadiazol-3-yl)-5-(phenoxymethyl)triazole-4-carboxylate] returned an EC50 of 23.8 µM. This lies in the double-digit micromolar range.

On to `Cc1nn(-c2ccccc2)c(Cl)c1C(=O)NCc1cccs1` [MLS000394567], for which the EC50 was over 300 µM. The figure for `COc1ccc(C(=O)c2sc(Nc3ccccc3)nc2N)cc1` is 1.04 µM; for `CC(N=Nc1nccnc1Cl)c1ccc(Br)cc1` (centres undefined) [N-[1-(4-bromophenyl)ethylideneamino]-3-chloranyl-pyrazin-2-amine] it is over 300 µM. As to `CSc1nc(SCC(N)=O)c2c3c(sc2n1)CN(C)CC3`, the concentration giving a half-maximal response (EC50) came to 5.08 µM.

On to `C[C@H](NC(=O)[C@@H]1CSC2c3ccccc3C(=O)N21)C(=O)NCc1c(F)cccc1Cl` (stereo partly drawn) [(3R)-N-[(2S)-1-[(2-chloro-6-fluorophenyl)methylamino]-1-oxopropan-2-yl]-5-oxo-3,9b-dihydro-2H-thiazolo[2,3-a]isoindole-3-carboxamide], for which the concentration for a half-maximal effect (EC50) is over 300 µM. Regarding `CN(C)c1nc(N)c([N+](=O)[O-])c(NCC2CCCO2)n1` (centres undefined) [SMR000436172], the concentration for a half-maximal effect (EC50) is over 300 µM. The figure for `CCCC1=Nc2ncnn2C(c2sccc2C)C1C(=O)OCC` (centres undefined) [SMR000440057] is over 300 µM. Take `CCn1c(-c2nn(C)cc2Cl)n[nH]c1=S` [MLS000703969]: the EC50 was over 300 µM. Compound `COc1ccc(-c2nc(-c3ccccc3)[nH]c(=O)c2C#N)cc1` [SMR000168458] registered a concentration giving a half-maximal response (EC50) of over 300 µM.

As to `COc1ccc(NC(=S)Nc2cccc(Cl)c2Cl)cc1OC`, the 50% effective concentration (EC50) was over 300 µM.

As for `CC(C)CNC(=O)c1cccc(NC(=O)c2ccc(NC(=O)c3ccco3)cc2)c1` [MLS000088940], the EC50 was over 300 µM.

`O=c1cc(-c2ccccc2)c2ccc(O)cc2o1` [7-Hydroxy-4-phenyl-chromen-2-one] returned an EC50 of 24.6 µM. The figure for `Cc1ccc(NC(=S)NC2CC3CCC(C2)N3Cc2ccco2)c(C)c1` (centres undefined) [1-(2,4-dimethylphenyl)-3-[8-(2-furanylmethyl)-8-azabicyclo[3.2.1]octan-3-yl]thiourea] is over 300 µM; for `COCCCn1c(-c2ccc(OC)cc2)nc2nc3ccccc3nc21` it is over 300 µM; for `CCOC(=O)c1cnc2ccc(OC)cc2c1NCCN1CCOCC1` [SMR000518517] it is over 300 µM. The figure for `CC1=NN(C(=O)CCc2ccc3c(c2)OCO3)C(O)(C(F)(F)F)C1` (centres undefined) [SMR000289779] is over 300 µM; for `CCOC(=O)c1nnn(-c2nonc2N)c1-c1cccs1` [1-(4-amino-1,2,5-oxadiazol-3-yl)-5-thiophen-2-yl-4-triazolecarboxylic acid ethyl ester] it is 11.7 µM. The figure for `CCN1C(=O)[C@H]2[C@@H](c3ccc(-c4ccccc4)cc3)N[C@@](CC(C)C)(C(=O)OC)[C@H]2C1=O` [SMR000814381] is over 300 µM; for `COCC(C)n1c(C)cc(C(=O)COC(=O)c2ccc3c(c2)NC(=O)CS3)c1C` (centres undefined) it is over 300 µM. With `Nc1nc(NCCO)nc(NCC2CCCO2)c1[N+](=O)[O-]` (centres undefined), the EC50 was found to be 9.74 µM. In turn, `COC(=O)c1nnn(-c2nonc2N)c1CSc1nnc(N)s1` [1-(4-amino-1,2,5-oxadiazol-3-yl)-5-[[(5-amino-1,3,4-thiadiazol-2-yl)thio]methyl]-4-triazolecarboxylic acid methyl ester] yielded an EC50 of 40 µM. Regarding `COc1ccc(S(=O)(=O)NCC(c2ccc3c(c2)OCO3)N2CCOCC2)cc1` (centres undefined) [N-[2-(1,3-benzodioxol-5-yl)-2-morpholin-4-ylethyl]-4-methoxybenzenesulfonamide], the EC50 was over 300 µM. The figure for `CCCCc1cc(=O)oc2cc(OS(C)(=O)=O)ccc12` [(4-butyl-2-oxidanylidene-chromen-7-yl) methanesulfonate] is over 300 µM; for `CCCn1c(SCC(=O)Nc2ccccc2OC)nnc1-c1ccco1` it is over 300 µM; for `Cc1cccc(Nc2nc(N)c([N+](=O)[O-])c(NCc3ccco3)n2)c1` [SMR000220105] it is 8.4 µM. The figure for `C[C@H]1[C@@H](c2ccccc2)O[C@@H](c2ccccc2Br)N1C` [MLS001242758] is over 300 µM.

Consider `Cc1nnc2n(-c3ccccc3)c(=O)c3c4c(sc3n12)COC(C)(C)C4` [SMR000038952], for which the 50% effective concentration (EC50) is over 300 µM. The figure for `CCOC(=O)CSc1ccc2nnc(-c3ccncc3)n2n1` is 1.9 µM; for `CCOC(=O)C(C(=O)Nc1ccc(Cl)cc1Cl)C1=NC(C)(C)Cc2ccccc21` (centres undefined) it is over 300 µM. The figure for `COc1ccc(-c2nnc3ccc(SCC(N)=O)nn23)cc1OC` [2-[[3-(3,4-dimethoxyphenyl)-[1,2,4]triazolo[4,3-b]pyridazin-6-yl]sulfanyl]ethanamide] is over 300 µM; for `Nc1nonc1-n1nnc(C(=O)NN=Cc2ccccc2)c1CN1CCc2ccccc21` [1-(4-amino-1,2,5-oxadiazol-3-yl)-5-(2,3-dihydroindol-1-ylmethyl)-N-[(phenylmethylene)amino]-4-triazolecarboxamide] it is 3.62 µM; for `CC(C)=CCc1c(O)cc2c(c1O)C(=O)CC(c1ccccc1)O2` (centres undefined) [MLS000697639] it is over 300 µM.

As for `CCC1(CC)NC(=O)N(CC(=O)OCC(=O)Nc2sccc2C#N)C1=O` [[2-[(3-cyanothiophen-2-yl)amino]-2-oxoethyl] 2-(4,4-diethyl-2,5-dioxoimidazolidin-1-yl)acetate], the EC50 is over 300 µM. The figure for `NC(=O)c1ncn([C@@H]2O[C@H](CO)[C@@H](O)[C@H]2O)c1O` [1-[(2R,3R,4S,5R)-5-(hydroxymethyl)-3,4-bis(oxidanyl)oxolan-2-yl]-5-oxidanyl-imidazole-4-carboxamide] is over 300 µM. `COc1ccc(CCN(C)C(=O)c2ccc(S(=O)(=O)Nc3ccccc3C)cc2)cc1OC`: the concentration giving a half-maximal response (EC50) is over 300 µM. In turn, `CCN(CC)Cc1c(O)ccc2c(=O)c(-c3ccc4c(c3)OCCO4)coc12` [MLS000552107] gave an EC50 of over 300 µM. The figure for `COc1ccc(CNC(=O)CN(Cc2ccccc2)C(=O)CCC(=O)Nc2ccccn2)cc1` is 24.2 µM; for `COc1ccc(OC)c(C=NNC(=O)CCc2c(C)n[nH]c2C)c1` [MLS000769019] it is over 300 µM; for `CCCCCCSc1ccc([C@H]2N[C@@](CC(C)C)(C(=O)OC)[C@H]3C(=O)N(C)C(=O)[C@@H]23)cc1` [SMR000814394] it is over 300 µM.

The compound `COCCn1c(SCC(=O)NC(=O)NC(C)(C)C)nc2ccccc21` yielded an EC50 of over 300 µM.

Compound `CCCn1nc(NC(=O)c2cccs2)c2cc3cc(C)ccc3nc21` [SMR000436650] showed an EC50 of over 300 µM. As to `Cc1cccc(/C=C2/Sc3ccc(C(=O)NCCN4CCCC4)cc3NC2=O)c1` [(2E)-2-[(3-methylphenyl)methylidene]-3-oxidanylidene-N-(2-pyrrolidin-1-ylethyl)-4H-1,4-benzothiazine-6-carboxamide], the EC50 was determined as 6.28 µM. The figure for `N#Cc1c(-c2ccccc2)nc(-c2ccccc2)[nH]c1=O` [SMR000168447] is over 300 µM. The figure for `COc1cc(/C=N/NC(=O)c2ccc(Cl)cc2)ccc1Oc1ccc([N+](=O)[O-])cn1` is over 300 µM; for `COc1ccc(C(=O)c2sc(Nc3ccccc3F)nc2N)cc1` it is 1.48 µM; for `C=CCNC(=O)c1ccc(OC)cc1OC` it is over 300 µM.

As for `CCn1c(SCC(=O)Nc2ccc(Cl)cc2)nnc1C1CC1` [MLS000115911], the EC50 is over 300 µM.

`O=C(N[N-][CH+]c1ccc(N2CCCC2)c([N+](=O)[O-])c1)c1cccnc1` [N-[(3-nitro-4-pyrrolidin-1-ylphenyl)methylideneamino]pyridine-3-carboxamide] registered an EC50 of over 300 µM. Compound `Cc1ccsc1CN=Nc1ncnc2nc[nH]c12` [N-[(3-methyl-2-thiophenyl)methylideneamino]-7H-purin-6-amine] registered a concentration for a half-maximal effect (EC50) of 9 µM. That is a single-digit micromolar value.

On to `CCOC(=O)c1nnn(-c2nonc2N)c1-c1ccc(OC)cc1` [1-(4-amino-1,2,5-oxadiazol-3-yl)-5-(4-methoxyphenyl)-4-triazolecarboxylic acid ethyl ester], for which the EC50 came to 14.4 µM. This EC50 is about 1.6-fold higher than that of the compound before. The figure for `O=C(Nc1cccc(F)c1)c1cccc2c1C(=O)N(C1CCCCC1)C2` [MLS000912875] is over 300 µM. The compound `O=NCc1ccc(SCc2ccccc2Cl)c([N+](=O)[O-])c1` came in with an EC50 of over 300 µM.
